Measured values: ChEMBL document CHEMBL1268893, “A practical deuterium-free NMR method for the rapid determination of 1-octanol/water partition coefficients of pharmaceutical agents” (Bioorg Med Chem Lett, 2010)

Columns and labels:
[1] = Octanol-water partition coefficient, log P of the compound by deuterium-free NMR method; type: physicochemical
[2] = Octanol-water partition coefficient, log P of the compound at pH 7.0
[3] = Octanol-water partition coefficient, log P of the compound; type: physicochemical
[4] = Octanol-water partition coefficient, log P of the compound after partitioning between 0.1 M NaOH and 1-octanol by deuterium-free NMR method; type: physicochemical; conditions: 1-octanol/0.1 M NaOH

Row | logP [1] | logD [2] | logP [3] | logP [4] | SMILES
1 |  |  | 0.88 | 0.9 | CCN(CC)CCOC(=O)c1ccc(N)cc1 [PROCAINE]
2 | 1.45 |  |  |  | CCOc1ccc(NC(C)=O)cc1 [PHENACETIN]

Further lines, the compound ahead of its results:

Row | SMILES | logP [1] | logD [2] | logP [3] | logP [4]
3 | O=C1CN(/N=C/c2ccc([N+](=O)[O-])o2)C(=O)N1 [NITROFURANTOIN] | -0.36 | -0.68 |  | 
4 | CC[C@H]1OC(=O)[C@H](C)[C@@H](O[C@H]2C[C@@](C)(OC)[C@@H](O)[C@H](C)O2)[C@H](C)[C@@H](O[C@@H]2O[C@H](C)C[C@H](N(C)C)[C@H]2O)[C@](C)(O)C[C@@H](C)C(=O)[C@H](C)[C@@H](O)[C@]1(C)O [ERYTHROMYCIN] | 2.01 |  | 2.54 | 
5 | CC(=O)Oc1ccccc1C(=O)O [ASPIRIN] | 1.15 |  |  | 
6 | CC(=O)Nc1ccc(O)cc1 [ACETAMINOPHEN] | 0.29 |  | 0.33 | 
